The values below come from ChEMBL document CHEMBL3763010, “Inhibition of monoamine oxidase by benzoxathiolone analogues” (Bioorg Med Chem Lett, 2016).

For data set [1], the target named is T1, Amine oxidase [flavin-containing] B (Homo sapiens, UniProt P27338).
T1 sequence (P27338 whole entry): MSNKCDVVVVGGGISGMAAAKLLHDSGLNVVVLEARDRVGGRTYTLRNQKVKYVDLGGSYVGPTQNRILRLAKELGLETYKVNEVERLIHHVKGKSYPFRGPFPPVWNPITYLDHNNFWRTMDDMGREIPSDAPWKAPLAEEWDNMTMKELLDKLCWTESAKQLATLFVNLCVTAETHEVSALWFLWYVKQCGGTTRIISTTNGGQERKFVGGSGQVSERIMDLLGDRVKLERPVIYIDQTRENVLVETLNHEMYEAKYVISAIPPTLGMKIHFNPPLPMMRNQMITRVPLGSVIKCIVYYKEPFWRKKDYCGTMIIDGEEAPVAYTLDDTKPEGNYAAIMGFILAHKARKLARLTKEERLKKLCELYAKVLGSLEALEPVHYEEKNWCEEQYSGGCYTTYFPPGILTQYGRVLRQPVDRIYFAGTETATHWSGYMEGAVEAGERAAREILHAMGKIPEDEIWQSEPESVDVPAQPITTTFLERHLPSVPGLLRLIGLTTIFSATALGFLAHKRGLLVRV
Description: Inhibition of recombinant human MAO-B after 20 mins using 50 uM kynuramine as substrate by fluorescence spectrophotometry

Data set [2] in a line: Lipophilicity, logP of the compound by shake-flask method. The format is physicochemical. Conditions: octanol/water.
The species entered for data set [3] is Homo sapiens. The data set can be described thus: Selectivity index, ratio of IC50 for recombinant human MAO-A to recombinant human MAO-B.
Data set [4] deals with T2, Amine oxidase [flavin-containing] A (Homo sapiens, UniProt P21397).
T2 sequence (P21397 whole entry): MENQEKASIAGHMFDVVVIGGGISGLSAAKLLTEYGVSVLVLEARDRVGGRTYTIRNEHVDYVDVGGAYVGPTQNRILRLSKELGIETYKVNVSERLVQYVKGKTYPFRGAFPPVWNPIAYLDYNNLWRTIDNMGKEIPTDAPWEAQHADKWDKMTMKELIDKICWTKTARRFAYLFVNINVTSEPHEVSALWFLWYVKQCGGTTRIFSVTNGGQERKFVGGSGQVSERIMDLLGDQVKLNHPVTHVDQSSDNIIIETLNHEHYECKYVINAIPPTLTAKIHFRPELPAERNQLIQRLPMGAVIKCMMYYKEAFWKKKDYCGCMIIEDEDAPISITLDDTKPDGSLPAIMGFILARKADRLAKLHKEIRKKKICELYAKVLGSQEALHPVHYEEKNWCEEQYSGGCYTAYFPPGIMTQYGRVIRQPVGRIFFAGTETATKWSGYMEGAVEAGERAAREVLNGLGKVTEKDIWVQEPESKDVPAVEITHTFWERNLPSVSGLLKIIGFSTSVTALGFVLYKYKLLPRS
Description: Inhibition of recombinant human MAO-A after 20 mins using 50 uM kynuramine as substrate by fluorescence spectrophotometry

The target of data set [5] is T2, Amine oxidase [flavin-containing] A. The data set can be described thus: Reversible inhibition of recombinant human MAO-A assessed as enzyme activity recovered pretreated with compound for 15 mins followed by addition of 50 uM kynuramine as substrate measured after 24 hrs by dialysis. Further details: scale not given: the % may be the effect or the level left.
Data set [6] has as its target T1, Amine oxidase [flavin-containing] B. The data set is described as follows: Inhibition of recombinant human MAO-B pretreated with compound for 15 mins followed by addition of 50 uM kynuramine as substrate by Michaelis-Menten method.
Data set [7] concerns the target T2, Amine oxidase [flavin-containing] A. The data set can be described thus: Competition inhibition of recombinant human MAO-A pretreated with compound for 15 mins followed by addition of 50 uM kynuramine as substrate by Lineweaver-Burk plot method.
The target in data set [8] is T1, Amine oxidase [flavin-containing] B. The data set is described as follows: Competition inhibition of recombinant human MAO-B pretreated with compound for 15 mins followed by addition of 50 uM kynuramine as substrate by Lineweaver-Burk plot method.
The target is the same in data set [9]. The data set can be described thus: Inhibition of recombinant human MAO-B assessed as enzyme activity pretreated with compound for 15 mins followed by addition of 50 uM kynuramine as substrate measured after 24 hrs. Set-up: scale not given: the % may be the effect or the level left.
For data set [10], the target named is T2, Amine oxidase [flavin-containing] A. The data set is described as follows: Inhibition of recombinant human MAO-A assessed as enzyme activity pretreated with compound for 15 mins followed by addition of 50 uM kynuramine as substrate measured after 24 hrs. Set-up: scale not given: the % may be the effect or the level left.
Data set [11] has the same target. The data set can be described thus: Inhibition of recombinant human MAO-A activity pretreated with compound for 15 mins followed by addition of 50 uM kynuramine as substrate by Michaelis-Menten method.

Consider `O=c1oc2cc(OCc3ccccc3)ccc2s1`, for which the IC50 in [1] is 51 nM; in data set [4] it was 5140 nM. Besides, the logP in [2] was 3.8. The Ratio IC50 in data set [3] is 101.
In the case of `C#CCN(C)Cc1ccccc1` [PARGYLINE], the Activity in data set [5] is 0.9%.
For `O=C1OCc2cc(OCc3ccccc3)ccc21`, the figures for the IC50 in data set [1] and in data set [4] were 62 nM and 26700 nM, respectively.
As to `O=c1oc2cc(O)ccc2s1` [TIOXOLONE], the IC50 in [1] was determined as 9570 nM; in data set [4] it was 9770 nM. For the same molecule, the Ratio IC50 in [3] was determined as 1.
Take `O=c1oc2cc(OCc3ccc(Cl)cc3)ccc2s1`: the Ki in data set [6] was determined as 3.9 nM; in [7], 360 nM; in data set [8], 3.5 nM; in data set [11] it was 560 nM. In addition, the IC50 in data set [1] worked out at 3 nM; in data set [4], 189 nM. In data set [2], this molecule gave a logP of 5.61. The results for the Activity in data set [5], in data set [9] and in data set [10] were 93%, 39% and 73%, respectively. Also, in [3], the Ratio IC50 amounted to 63.

For orientation: IC50 means the point on the concentration scale where inhibition reaches its midpoint. The term logP denotes a log measure of how a compound divides between an organic and an aqueous phase. The term Ki denotes the dissociation constant of the complex between target and ligand, obtained from inhibition or displacement.
